Source: US8309589B2, “Fluorine-containing organosulfur compound and pesticidal composition comprising the same” (Sumitomo Chemical Company, Limited, priority 2007, dated 2012)

These compounds were tested on Blattalla germanica (assay: Test Example 4: filter paper with sucrose bait, Blattalla germanica). Details: 500 ppm, 0.7 ml on filter paper; 2 male imagoes; after 6 days.
Format: in vivo
Experimental: A formulation of any one of the present compounds (2), (3) and (4) obtained according to Formulation Example 10 was diluted with water so that the active ingredient concentration was 500 ppm to obtain a test solution.
A filter paper having a diameter of 5.5 cm was spread on the bottom of a polyethylene cup having a diameter of 5.5 cm and 0.7 ml of the test solution was added dropwise onto the filter paper. As a bait 30 mg of sucrose was uniformly placed on the filter paper. Into the polyethylene cup, 2 male imagoes of Blattalla germanica were released and the cup was sealed with a lid. After 6 days, the number of surviving Blattalla germanica was examined and the death rate of the pest was calculated.
Compound `CC(C)(C)c1cc(CSCCC(F)(F)F)no1` [present compound (2), 5-tert-butyl-3-[(3,3,3-trifluoropropylsulfanyl)methyl]isoxazole] has a pest death rate of 100%. In the case of `FC(F)(F)CCSCn1cnc(C(F)(F)F)c1` [present compound (3), 4-trifluoromethyl-1-[(3,3,3-trifluoropropylsulfanyl)methyl]-1H-imidazole], the pest death rate is reported as 100%. Work on `CC(C)(C)n1cc(CSCCC(F)(F)F)cn1` [present compound (4), 1-tert-butyl-4-[(3,3,3-trifluoropropylsulfanyl)methyl]-1H-pyrazole] yielded a pest death rate of 100%.
